Laboratory results from US20250025443A1, “COMPOUNDS AND METHODS FOR TREATING CORONA VIRUSES” (CLEAR CREEK BIO, INC., priority 2021, published 2025).

Molecular target: SARS-CoV-2 Papain-Like Protease (PLpro) (Severe acute respiratory syndrome coronavirus 2 (2019-nCoV) (SARS-CoV-2), UniProt P0DTD1)
Experiment: biochemical
Settings: PLpro IC50, PLpro enzymatic fluorescence assay; class symbols

SMILES	IC50
Cc1ccc(OC[C@@H]2CCN2C)cc1C(=O)NC1(c2cc3ccccc3c3ccccc23)CC1 [Compound 569, (S)-2-Methyl-5-((1-methylazetidin-2-yl)methoxy)-N-(1-(phenanthren-9-yl)cyclopropyl)benzamide]	> 5000 nM

Same assay, conditions: PLpro enzymatic fluorescence assay; class symbols; read-out: PLpro IC50

SMILES	IC50
C=Cc1cc(C2(NC(=O)c3cc(OCC4CCN4C)ccc3C)CC2)c2ccccc2c1 (stereo not shown) [Compound 517, 2-Methyl-5-((1-methylazetidin-2-yl)methoxy)-N-(1-(3-vinylnaphthalen-1-yl)cyclopropyl)benzamide]	< 100 nM
[2H]C([2H])(Oc1ccc(C)c(C(=O)NC2(c3cc(OC)cc4ncccc34)CC2)c1)[C@@H]1CCN1C [Compound 797, (S)-N-(1-(7-Methoxyquinolin-5-yl)cyclopropyl)-2-methyl-5-((1-methylazetidin-2-yl)methoxy-d2)benzamide]	< 100 nM
Cc1ccc(OC[C@@H]2CCN2)cc1C(=O)NC1(c2cc(N3CCC3)cc3ncccc23)CC1 [Compound 722, (S)—N-(1-(7-(Azetidin-1-yl)quinolin-5-yl)cyclopropyl)-5-(azetidin-2-ylmethoxy)-2-methylbenzamide]	< 100 nM
CC#Cc1cc(C2(NC(=O)c3cc(OC[C@@H]4CCN4)ccc3C)CC2)c2cccnc2c1 [Compound 696, (S)-5-(Azetidin-2-ylmethoxy)-2-methyl-N-(1-(7-(prop-1-yn-1-yl)quinolin-5-yl)cyclopropyl)benzamide]	< 100 nM
Cc1ccc(OC[C@@H]2CCN2C)cc1C(=O)NC1(c2cc(OCC(F)(F)F)cc3ncccc23)CC1 [Compound 795, (S)-2-Methyl-5-((1-methylazetidin-2-yl)methoxy)-N-(1-(7-(2,2,2-trifluoroethoxy)quinolin-5-yl)cyclopropyl)benzamide]	< 100 nM
Cc1ccc(OC[C@@H]2CCN2C)cc1C(=O)NC1(c2cc(-c3ccc(C(C)O)s3)cc3ncccc23)CC1 (stereo partly drawn) [Compound 762, N-(1-(7-(5-(1-Hydroxyethyl)thiophen-2-yl)quinolin-5-yl)cyclopropyl)-2-methyl-5-(((S)-1-methylazetidin-2-yl)methoxy)benzamide]	< 100 nM
COc1cc(C2(NC(=O)c3cc(O[C@H]4CC[C@@H]5CN(C(=O)OC(C)(C)C)CCN5C4)ccc3C)CC2)c2cccnc2c1 [Compound 776]	< 100 nM
COc1cc(C2(NC(=O)c3cc(OC[C@@H](C)N)ccc3C)CC2)c2cccnc2c1 [Compound 535, (R)-5-(2-Aminopropoxy)-N-(1-(7-methoxyquinolin-5-yl)cyclopropyl)-2-methylbenzamide]	< 100 nM
COc1cc(C2(NC(=O)c3cc(OC[C@@H]4CCN4C)c(O)cc3C)CC2)c2cccnc2c1 [Compound 750, (S)-4-Hydroxy-N-(1-(7-methoxyquinolin-5-yl)cyclopropyl)-2-methyl-5-((1-methylazetidin-2-yl)methoxy)benzamide]	< 100 nM
Cc1ccc(OCC2CCN2C)cc1C(=O)NC1(c2cc(O)cc3ncccc23)CC1 (stereo not shown) [Compound 488, N-(1-(7-Hydroxyquinolin-5-yl)cyclopropyl)-2-methyl-5-((1-methylazetidin-2-yl)methoxy)benzamide]	< 100 nM
COc1cc(C2(NC(=O)c3cc(OC[C@@H]4CCCCN4C)ccc3C)CC2)c2cccnc2c1 [Compound 553, (S)-N-(1-(7-Methoxyquinolin-5-yl)cyclopropyl)-2-methyl-5-((1-methylpiperidin-2-yl)methoxy)benzamide]	< 100 nM

Same assay, conditions: SARS-CoV-2 PLpro enzymatic fluorescence assay; read-out: PLpro IC50

SMILES	IC50
Cc1ccc(OCC(C)N)cc1C(=O)NC1(c2cc(-c3ccccc3)cc3ccccc23)CC1 (stereo not shown) [Compound 470, 5-(2-Aminopropoxy)-2-methyl-N-(1-(3-phenylnaphthalen-1-yl)cyclopropyl)benzamide]	< 100 nM
Cc1ccc(OCC(C)(C)N)cc1C(=O)NC1(c2cccc3ccccc23)CC1 [Compound 352, 5-(2-Amino-2-methylpropoxy)-2-methyl-N-(1-(naphthalen-1-yl)cyclopropyl)benzamide]	< 100 nM
CC(c1cccc2cnccc12)N1CCC(C(=O)NCc2cccc(F)c2)CC1 (stereo not shown) [Compound 522, N-(3-Fluorobenzyl)-1-(1-(isoquinolin-5-yl)ethyl)piperidine-4-carboxamide]	> 5000 nM
Cc1ccc(OC[C@H]2CCN2C)cc1C(=O)NC1(c2cccc3ccccc23)CC1 [Compound 309, (R)-2-Methyl-5-((1-methylazetidin-2-yl)methoxy)-N-(1-(naphthalen-1-yl)cyclopropyl)benzamide]	< 100 nM
CN(C)CCOc1ccc(Br)c(C(=O)NC2(c3cccc4ccccc34)CC2)c1 [Compound 269, 2-Bromo-5-(2-(dimethylamino)ethoxy)-N-(1-(naphthalen-1-yl)cyclopropyl)benzamide]	100 to 1000 nM
Cc1cc2cc(C(C)N)[nH]c2cc1C(=O)NC1(c2cccc3ccccc23)CC1 (stereo not shown) [Compound 273, 2-(1-Aminoethyl)-5-methyl-N-(1-(naphthalen-1-yl)cyclopropyl)-1H-indole-6-carboxamide]	< 100 nM
Cc1ccc(CCN)cc1C(=O)NC1(c2cccc3ccccc23)CC1 [Compound 378, 5-(2-Aminoethyl)-2-methyl-N-(1-(naphthalen-1-yl)cyclopropyl)benzamide]	< 100 nM
COc1cc(C2(NC(=O)c3cc(OC[C@@H]4CCN4)ccc3C)CC2)c2cccnc2c1 [Compound 511, (S)-5-(Azetidin-2-ylmethoxy)-N-(1-(7-methoxyquinolin-5-yl)cyclopropyl)-2-methylbenzamide]	< 100 nM
Cc1ccc(C2CCNC2)cc1C(=O)NC1(c2cccc3ccccc23)CC1 (stereo not shown) [Compound 413, 2-Methyl-N-(1-(naphthalen-1-yl)cyclopropyl)-5-(pyrrolidin-3-yl)benzamide]	< 100 nM
Cc1ccc(OC[C@H]2C[C@@H](O)CN2)cc1C(=O)NC1(c2cccc3ccccc23)CC1 (racemic) [Compound 416, rac-5-(((2R,4R)-4-Hydroxypyrrolidin-2-yl)methoxy)-2-methyl-N-(1-(naphthalen-1-yl)cyclopropyl)benzamide]	< 100 nM
COc1ncccc1Nc1ccc(C)c(C(=O)N[C@H](C)c2cccc3ccccc23)c1 [Compound 115, (R)-5-((2-Methoxypyridin-3-yl)amino)-2-methyl-N-(1-(naphthalen-1-yl)ethyl)benzamide]	1000 to 5000 nM
Cc1ccc(OC[C@@H]2CCN2C)cc1C(=O)NC1(c2cc(NS(C)(=O)=O)cc3ncccc23)CC1 [Compound 786, (S)-2-Methyl-5-((1-methylazetidin-2-yl)methoxy)-N-(1-(7-(methylsulfonamido)quinolin-5-yl)cyclopropyl)benzamide]	< 100 nM
Cc1ccc(OC[C@@H]2CCN2C)cc1C(=O)NC1(c2cc(O)nc3cc(F)ccc23)CC1 [Compound 542, (S)-N-(1-(7-Fluoro-2-hydroxyquinolin-4-yl)cyclopropyl)-2-methyl-5-((1-methylazetidin-2-yl)methoxy)benzamide]	< 100 nM
C=Cc1cc(C2(NC(=O)c3cc(OCC45CCCN4CCC5)ccc3C)CC2)c2cccnc2c1 [Compound 748, 2-Methyl-5-((tetrahydro-1H-pyrrolizin-7a (5H)-yl)methoxy)-N-(1-(7-vinylquinolin-5-yl)cyclopropyl)benzamide]	< 100 nM
Cc1ccc(OCC2CCN2C)cc1C(=O)NC1(c2cc(C(C)C)cc3ccccc23)CC1 (stereo not shown) [Compound 521, N-(1-(3-Isopropylnaphthalen-1-yl)cyclopropyl)-2-methyl-5-((1-methylazetidin-2-yl)methoxy)benzamide]	< 100 nM
CON(C)C(=O)c1cc2cc(C)c(C(=O)NC3(c4cccc5ccccc45)CC3)cc2[nH]1 [Compound 225]	100 to 1000 nM
